Earlier results as cited in patent publication US20250057829A1, “INHIBITORS OF TRPC6 FOR TREATING FOCAL SEGMENTAL GLOMERULOSCLEROSIS” (Boehringer Ingelheim International GmbH, priority 2023, published 2025).

Test system: adults and children with steroid resistant FSGS
Conditions: week 8, follow-up vs. baseline; cited from earlier work

mycophenolate mofetil/dexamethasone [MMF/DEX]
reduction of UPCR: ~50%
